Key:
[1] = molecular target: T1, TEM-1 β-lac (Escherichia coli, UniProt P62593); assay: Solution-based β-lac assay (nitrocefin hydrolysis, absorbance at 492 nm); type: biochemical; details: promiscuous aggregating inhibitors; diluted from 10 mM DMSO stocks
[2] = Promiscuous aggregating inhibitor size measurement by dynamic light scattering (DLS); type: physicochemical; details: 100 μM solutions; for Aggregate size (Z-average diameter, DLS) / Polydispersity (DLS): 23°C
Description: Promiscuous aggregating inhibitor size measurement
Dynamic light scattering measurements were performed using a Zetasizer Nano ZS instrument (Malvern). The intensity of backscattered light was measured at a 173° angle. Data collection and analysis were performed using the Dispersion Technology Software (version 6.0) from Malvern. Samples of Rottlerin, BIS IX and TIPT at 100 μM concentrations were analyzed in a plastic cuvette with a 10 mm path length. Prior to measurement, samples were equilibrated for 120 s at 23°C. For each sample, 10 runs were performed with three repetitions. The intensity size distribution, Z-average diameter and polydispersity index was collected for each sample. Note that no significant signal was acquired from DLS measurements on the true inhibitors, confirming their solution state.

[3] = molecular target: T1, TEM-1 β-lac; assay: Printed hydrogel-based β-lac assay (nitrocefin, colorimetric image analysis); type: biochemical; details: promiscuous aggregating inhibitors; starting concentration 100 μM
Description: Inhibitor solutions and nitrocefin (a colorimetric β-lac substrate) were subsequently deposited on the microzones at different concentrations using a high-throughput dispensing robot. The resulting colorimetric read-out of β-lac activity was quantified via image analysis.
POH ink solution was prepared with a final concentration of 50 nM β-lac and used to print hydrogel spots on a 96-well paper microzone plate as described previously. […] The inhibitor was incubated with the printed β-lac for 20 min, after which the assay was initiated with the addition of 5 μl of nitrocefin (500 μM) to each microzone. […] Images were taken with a Canon DSLR camera (operated in manual focus mode without flash) after 25 min. The wax-printed background was filtered out using GIMP software (Version 2.8.16). Image analysis was performed using Fiji, with the converted substrate color extracted using the Color Deconvolution plugin. Extracted images were inverted and converted to 8 bit grayscale images. The intensity of each sample was measured and presented as a ratio of the control image (i.e., a microzone not treated with inhibitor). Calculation of IC50 values was carried out in OriginPro by plotting the calculated percentage inhibition against the added inhibitor concentration. Curve fitting was performed with the dose–response function (OriginLab Corporation, Northampton, MA, USA).

[4] = molecular target: β-lactamase; details: reported literature values; cited from earlier work

T1 sequence (P62593 24-286 limits assumed): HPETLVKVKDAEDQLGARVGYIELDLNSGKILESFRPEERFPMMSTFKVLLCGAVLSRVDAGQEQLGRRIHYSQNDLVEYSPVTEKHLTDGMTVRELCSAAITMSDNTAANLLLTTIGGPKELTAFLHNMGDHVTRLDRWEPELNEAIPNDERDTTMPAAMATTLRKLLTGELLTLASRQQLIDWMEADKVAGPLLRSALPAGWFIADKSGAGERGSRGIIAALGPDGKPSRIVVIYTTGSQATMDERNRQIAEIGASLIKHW

Row | Structure (SMILES) | Inhibition of β-lac in the solution-based assay (false-positive hit) [1] | Particle size range of aggregates (DLS intensity distribution) [2] | Aggregate size (Z-average diameter, DLS) [2] | Polydispersity (DLS) [2] | Specific inhibition of β-lac in the hydrogel-based assay [3] | IC50 [4]
1 | O=C1OC(c2cc(I)c(O)c(I)c2)(c2c(I)cc(O)cc2I)c2ccccc21 (centres unmarked) [TIPT, tetraiodophenolphthalein] | inhibited | 50-800 nm | 154 ± 1 nm | 0.16 ± 0.02 | no specific inhibition | 
2 | CC(=O)c1c(O)c(C)c(O)c(Cc2c(O)c3c(c(C(=O)/C=C/c4ccccc4)c2O)OC(C)(C)C=C3)c1O [Rottlerin, rottlerin] | inhibited | 50-800 nm | 188 ± 1 nm | 0.24 ± 0.01 | no specific inhibition | 
3 | C[C@]1(Cn2ccnn2)[C@H](C(=O)O)N2C(=O)C[C@H]2S1(=O)=O [Tazobactam, tazobactam] |  |  |  |  |  | 0.04 µM
4 | [H]/N=C(/N)SCCCn1cc(C2=C(c3cn(C)c4ccccc34)C(=O)NC2=O)c2ccccc21 [BIS IX, bisindolylmaleimide IX] | inhibited | 50-800 nm | 365 ± 9 nm | 0.36 ± 0.02 | no specific inhibition | 
5 | CC1(C)[C@H](C(=O)O)N2C(=O)C[C@H]2S1(=O)=O [Sulbactam, sulbactam] |  |  |  |  |  | 6.1 µM

Reference: paper PMC5807445, “A printable hydrogel microarray for drug screening avoids false positives associated with promiscuous aggregating inhibitors” (Nature Communications, 2018)
